Assays:
[1] = tested on: ANGIOTENSIN II VASOPRESSOR RESPONSE; assay: AII Challenge: blockade of angiotensin II vasopressor response in conscious SHR; type: in vivo, rat (Conscious Male Okamoto-Aoki SHR); details: SHR n=2, 10 mg/kg i.v.
Text: By administering a compound of this invention to a rat, and then challenging with angiotensin II, a blockage of the vasopressor response is realized.
Conscious Male Okamoto-Aoki SHR, 16-20 weeks old, weighing approximately 330 g are purchased from Charles River Labs (Wilmington, Mass.). Conscious rats are restrained in a supine position with elastic tape. The area at the base of the tail is locally anesthetized by subcutaneous infiltration with 2% procaine. The ventral caudal artery and vein are isolated, and a cannula made of polyethylene (PE) 10-20 tubing (fused together by heat) is passed into the lower abdominal aorta and vena cava, respectively. The cannula is secured, heparinized (1,000 I.U./ml), sealed and the wound is closed. The animals are placed in plastic restraining cages in an upright position. The cannula is attached to a Statham P23Db pressure transducer, and pulsatile blood pressure is recorded to 10-15 minutes with a Gould Brush recorder. (Chan et al., (Drug Development Res., 18:75-94, 1989).
Angiotensin II (human sequence, Sigma Chem. Co., St. Louis, MO) of 0.05 and 0.1 ug/kg i.v. is injected into all rats (predosing response). Then a test compound, vehicle or a known angiotensin II antagonist is administered i.v., i.p. or orally to each set of rats. The two doses of angiotensin II are given to each rat again at 30, 60, 90, 120, 180, 240 and 300 minutes post dosing the compound or vehicle. The vasopressor response of angiotensin II is measured for the increase in systolic blood pressure in mmHg. The percentage of antagonism or blockade of the vasopressor response of angiotensin II by a compound is calculated using the vasopressor response (increase in systolic blood pressure) of angiotensin II of each rat predosing the compound as 100%. A compound is considered active if at 30 mg/kg i.v. it antagonized at least 50% of the response.

Angiotensin II Receptor = target: T1, Angiotensin II Receptor (Bos taurus, UniProt P25104); assay: Receptor Binding Assay: Binding of [^125 I](Sar^1,Ile^8)AngII to beef adrenal cortex membranes; details: 60 min, room temperature
T1 construct: The brownish tissue forming the adrenal cortex is scraped off and finely minced with scissors before homogenization; from tissue; host or cells: beef adrenal cortex, microsomal membranes (100,000×g pellet); fresh glands from a local slaughter house (Maxwell-Cohen)
T1 sequence (P25104 1-359): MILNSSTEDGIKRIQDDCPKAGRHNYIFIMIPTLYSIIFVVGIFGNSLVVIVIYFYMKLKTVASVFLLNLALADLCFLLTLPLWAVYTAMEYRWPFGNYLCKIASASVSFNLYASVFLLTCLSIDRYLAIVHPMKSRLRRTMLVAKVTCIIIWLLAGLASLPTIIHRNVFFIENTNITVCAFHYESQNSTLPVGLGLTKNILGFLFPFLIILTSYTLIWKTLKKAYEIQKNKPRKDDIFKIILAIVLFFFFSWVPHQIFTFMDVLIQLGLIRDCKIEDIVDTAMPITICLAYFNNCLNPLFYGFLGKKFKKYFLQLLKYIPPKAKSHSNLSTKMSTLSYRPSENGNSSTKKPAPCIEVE
Text: Beef adrenals are obtained from a local slaughter house (Maxwell-Cohen). [^125 […]. 2200 Ci/mmole, is purchased from Dupont (NEN®, Boston, Mass.). All unlabeled AngII analogs, Dimethylsulfoxide (DMSO), nucleotides, bovine serum albumin (BSA) are purchased from Sigma Chemical Co., St. Louis, Mo. U.S.A. […] Approximately sixteen (16) to twenty (20) beef adrenal glands are processed as follows: fresh adrenal glands received on crushed ice are cleaned of fatty tissues and the tough membranes encapsulating the glands are removed and discarded. The brownish tissue forming the adrenal cortex is scraped off and finely minced with scissors before homogenization. Care is taken to avoid contamination with medullary tissue during dissection. The scraped cortices are suspended in twenty volumes of an ice-cold buffer medium consisting of 10 mM Tris.HCl (pH 7.4 at 22° C.) and containing 1.0 mM EDTA and 0.2M sucrose. Unless otherwise indicated, all subsequent operations are done at 4° C. […] The homogenate is centrifuged first at low speed (3,000×g) for 10 minutes. […] This P2 pellet is discarded and the liquid phase is carefully decanted off in clean centrifuge tubes and recentrifuged at high speed (100,000×g) for 60 minutes. The translucent final pellet is harvested and combined in a small volume (20-50.0 ml) of 50.0 mM Tris.HCl buffer, pH 7.2. A 100 ul aliquot is withdrawn and the protein content of the preparation is determined by the Lowry's method (Lowry, O. H., Rosebrough, […]. and Randall, R. J., Protein measurement with Folin phenol reagent. J. Biol. Chem., […], 265-275, 1951). The pelleted membrane is reconstituted in 50.0 mM Tris.HCl buffer containing 0.1 mM of phenylmethylsulfonyl fluoride (PMSF) to give approximately a protein concentration of 2.5 mg per ml of tissue suspension. […] Receptor Binding Assay: […] In competition studies, experimental compounds are diluted in dimethylsulfoxide (DMSO) and added in 20 ul to wells before the introduction of tissue membranes. […] Assays are performed in triplicate. The wells are left undisturbed for 60 minutes at room temperature. Following incubation, all wells are harvested at once with a Brandel® Harvester especially designed for a 96 well plate (Brandel® Biomedical Research & Development Labs. Inc., Gaithersburg, Md., U.S.A.). The filter discs are washed with 10×1.0 ml of cold 0.9% NaCl to remove unbound ligand. Presoaking the filter sheet in 0.1% polyethyleneimine in normal saline (PEI/Saline) greatly reduces the radioactivity retained by the filter blanks. This method is routinely used. The filters are removed from the filter grid and counted in a Parkard® Cobra Gamma Counter for 1 minutes. (Packard Instrument Co., Downers Grove, Ill, U.S.A.). The binding data are analyzed by the non-linear interactive "LUNDON-1" program (LUNDON SOFTWARE Inc., Cleveland, Ohio U.S.A.).

[2] = AII 0.05 mcg/kg IV, 30 min post dose
[3] = AII 0.05 mcg/kg IV, 60 min post dose
[4] = AII 0.05 mcg/kg IV, 90 min post dose
[5] = AII 0.05 mcg/kg IV, 120 min post dose
[6] = AII 0.05 mcg/kg IV, 180 min post dose
[7] = AII 0.05 mcg/kg IV, 240 min post dose
[8] = AII 0.05 mcg/kg IV, 300 min post dose
[9] = AII 0.1 mcg/kg IV, 30 min post dose
[10] = AII 0.1 mcg/kg IV, 60 min post dose
[11] = AII 0.1 mcg/kg IV, 90 min post dose
[12] = AII 0.1 mcg/kg IV, 120 min post dose
[13] = AII 0.1 mcg/kg IV, 180 min post dose
[14] = AII 0.1 mcg/kg IV, 240 min post dose
[15] = AII 0.1 mcg/kg IV, 300 min post dose

## CCCCc1nc2ccc(C(C)(O)C3CCCN(C)C3=O)cc2c(=O)n1Cc1ccc(-c2ccccc2-c2nn[nH]n2)cc1 (single isomer, unassigned; isomer 1) [Example 52, 2-Butyl-6-[1-hydroxy(1-methyl-2-oxo-3-piperidinyl)ethyl]-3-[[2'-(1H-tetrazol-5-yl)-[1,1'-biphenyl]-4-yl]methyl]-4(3H)-quinazolinone, isomer 1]
[1]; [2]
  % Inhibition of AII vasopressor response: 71%
  Average Change (systolic blood pressure response to AII): 12.5 mmHg
[1]; [3]
  % Inhibition of AII vasopressor response: 94%
  Average Change (systolic blood pressure response to AII): 2.5 mmHg
[1]; [4]
  % Inhibition of AII vasopressor response: 76%
  Average Change (systolic blood pressure response to AII): 10 mmHg
[1]; [5]
  % Inhibition of AII vasopressor response: 59%
  Average Change (systolic blood pressure response to AII): 17.5 mmHg
[1]; [6]
  % Inhibition of AII vasopressor response: 47%
  Average Change (systolic blood pressure response to AII): 22.5 mmHg
[1]; [7]
  % Inhibition of AII vasopressor response: 29%
  Average Change (systolic blood pressure response to AII): 30 mmHg
[1]; [8]
  % Inhibition of AII vasopressor response: 47%
  Average Change (systolic blood pressure response to AII): 22.5 mmHg
[1]; [9]
  % Inhibition of AII vasopressor response: 85%
  Average Change (systolic blood pressure response to AII): 7.5 mmHg
[1]; [10]
  % Inhibition of AII vasopressor response: 90%
  Average Change (systolic blood pressure response to AII): 5 mmHg
[1]; [11]
  % Inhibition of AII vasopressor response: 70%
  Average Change (systolic blood pressure response to AII): 15 mmHg
[1]; [12]
  % Inhibition of AII vasopressor response: 80%
  Average Change (systolic blood pressure response to AII): 10 mmHg
[1]; [13]
  % Inhibition of AII vasopressor response: 55%
  Average Change (systolic blood pressure response to AII): 22.5 mmHg
[1]; [14]
  % Inhibition of AII vasopressor response: 45%
  Average Change (systolic blood pressure response to AII): 27.5 mmHg
[1]; [15]
  % Inhibition of AII vasopressor response: 45%
  Average Change (systolic blood pressure response to AII): 27.5 mmHg
Angiotensin II Receptor
  IC50: 62 nM

Source: patent US5288720A, “Angiotensin II receptor blocking 2,3,6 substituted quinazolinones” (American Cyanamid Company, priority 1993, dated 1994)
